We go through four molecules from US4478827A, “Renin inhibitors” (The General Hospital Corporation, priority 1983, dated 1984).

Data set [1] can be described thus: Solubility in aqueous medium. The data set is classed as physicochemical.
A short description of data set [2]: log P. In kind it is physicochemical.
The nature of data set [3]: Half life in vivo (loss of radioactively labeled peptide from the circulation). How it is done: The polypeptides of this invention are characterized by solubility in an aqueous medium at physiologic pH of 100-500 μm, an inhibition constant for (Ki) of between 1-50 μm and a half-life in vivo, as measured by rate of loss of radioactively labeled peptide from the circulation, of between about 1-10 minutes, especially 5-10 minutes.

Data set [4] has as its target T1, renin (Homo sapiens, UniProt P00797).
T1 sequence (P00797 67-406): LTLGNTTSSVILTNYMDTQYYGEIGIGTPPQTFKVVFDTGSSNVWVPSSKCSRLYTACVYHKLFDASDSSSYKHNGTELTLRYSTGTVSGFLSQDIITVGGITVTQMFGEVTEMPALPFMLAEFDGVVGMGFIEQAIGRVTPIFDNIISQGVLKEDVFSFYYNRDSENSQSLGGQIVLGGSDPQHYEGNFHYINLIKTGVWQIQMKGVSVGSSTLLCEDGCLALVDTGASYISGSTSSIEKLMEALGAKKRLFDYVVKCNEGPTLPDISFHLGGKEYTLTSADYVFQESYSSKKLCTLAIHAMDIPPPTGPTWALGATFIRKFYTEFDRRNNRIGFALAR
Nature of the data set: biochemical.
Description: The peptide being tested is dissolved in 0.01 N HCl and the pH adjusted to pH 7.5 to obtain high concentrations of peptide. The peptide solution is diluted further to appropriate concentrations with 0.1 M Tris HCl-albumin.
First, to determine Km, renin (0.006 Goldblatt unit/ml) is incubated for 2 hrs. at 37° with incremental concentrations of tetradecapeptide substrate varying between 3 and 108μ M in a volume of 160 μl at pH 7.5 in 0.1M Tris HCl containing 0.5% albumin. The release of angiotensin I is determined by radioimmunoassay (Haber et al, J. Clin. Endocrinol. Metab. 29, 1349 (1969)). […] Controls for cross-relatively are performed with each experiment and appropriate corrections are made when significant, (Poulsen et al, Scand. J. Clin. Lab. Invest. 31, Suppl. No. 132, 1, (1973)).
The inhibitor constant is calculated at previously described, (Poulsen et al, Scand. J. Clin. Lab. Invest. 31, suppl. No. 132, 1, (1973)), from a weighted leastsquares fit of a Lineweaver-Burk plot. […]
Angiotensin I standards and tetradecapeptide renin substrate were obtained from Peninsula (San Mateo, CA). Angiotensin I concentrations were determined with the radio immunoassay kit purchased from New England Nuclear (Boston, MA). […]
Data from the RIA was worked up using a computer program. Data were first fitted to a Lineweaver-Burke plot and from this KI was calculated.

Data set [5] has as its target T1, renin. The following applies: octapeptides with replaced Leu-Leu cleavage site, prior art; read-out: binding constants; cited from earlier work.
The mark [6] stands for this setting: pH 7.4, water, pH 7.40, read-out: Solubility (pH 7.40).

≈ marks a conversion by molar mass, not a printed value. Read-outs that look alike come from different tables or passages of the source. Where a SMILES comes first, the peptide text is derived from it. [ ]: non-standard residue; d: D form.

The term solubility denotes the dissolved amount per volume that the medium holds. In general, logP refers to a log measure of how a compound divides between an organic and an aqueous phase. High values mean higher lipophilicity, low ones lower lipophilicity. As for `CC(C)[C@H](NC(=O)[C@H](Cc1ccccc1)NC(=O)[C@H](Cc1ccccc1)NC(=O)[C@H](Cc1c[nH]cn1)NC(=O)[C@H](Cc1ccccc1)NC(=O)[C@@H]1CCCN1C(=O)[C@H](Cc1c[nH]cn1)NC(=O)[C@@H]1CCCN1)C(=O)N[C@@H](Cc1ccc(O)cc1)C(=O)N[C@H](CCCCN)C(=O)O` [D-RIP, Pro-His-Pro-Phe-His-Phe-Phe-Val-Tyr-D-Lys] (H-PHPFHFFVY[dK]-OH), the solubility in data set [1] and in data set [1] (setting [6]) was 330 µM (≈ 435 µg/mL) each time. In addition, the logP in data set [2] was -1.28. For the same molecule, in data set [3], the “Half life in vivo” value is 5 min. In data set [4], this molecule showed a Ki of 29.5 µM.

`CC(C)[C@H](NC(=O)[C@H](Cc1ccccc1)NC(=O)[C@H](Cc1ccccc1)NC(=O)[C@H](Cc1cnc[nH]1)NC(=O)[C@H](Cc1ccccc1)NC(=O)[C@@H]1CCCN1C(=O)[C@H](Cc1cnc[nH]1)NC(=O)[C@@H]1CCCN1)C(=O)N[C@@H](Cc1ccc(O)cc1)C(=O)N[C@@H](CCCCN)C(=O)O` [RIP, Pro-His-Pro-Pre-His-Phe-Phe-Val-Tyr-Lys] (H-PHPFHFFVYK-OH): in data set [1] (setting [6]), the solubility came to 840 µM (≈ 1110 µg/mL). In addition, in data set [3] (in vitro and in vivo), the “life in vitro and in vivo” value is listed as “relatively short life”. For the same molecule, the “Half life in vivo” value in data set [3] came to 3.8 min. The Ki in data set [4] stood at 42 µM.

Consider Leu-Phe, for which the Ki in data set [5] is 4 µM.

Regarding Leu-Tyr, in data set [5], the Ki was 12 µM.
